Reference: paper PMC12643509, “High-throughput screens identify genotype-specific therapeutics for channelopathies” (JCI Insight, 2025)
“And” between values parts separate entries of the source, which are not always exact repeats. Equal entries are not always repeated.

Key:
WT Kv11.1 [1] = target: T1, WT Kv11.1 (Homo sapiens, UniProt Q12809); experiment: Whole-cell patch-clamp electrophysiology, drug in bath solution, WT; format: cell-based; parameters: expressed in transfected cells; Activation tail currents / Steady-state currents / Time constants of activation (τ): unit not given here; conditions: for Figure 5E value per cell vs Voltage (mV) / Figure 5F value per cell vs Voltage (mV) / Figure 4D value per cell vs Voltage (mV): individual replicates; for Inactivation time constant / Fast deactivation time constant / Slow deactivation time constant: Evacetrapib (15 µmol/L); for Peak tail current: Evacetrapib 15 µmol/L
Text: Peak stea dy-sta te current was
Tail current was fit with a […]

WT Kv11.1 [2] = target: T1, WT Kv11.1; conditions: 24 hour and washout, individual wells
Text: plot of hits tested for 24-h our WT toxicity. Each point repres ents the med ia n robust Z score
after 24-hour treatm ent and washout in cells ex pressing WT.
robust Z scores be low bas eli ne function).
second ary screens w ere perform ed i n triplicate us ing 1 0 µ M drug treatme nt to assess: 1)
acute channel block, measur ed after a 15-minute inc ubati on with the drug present duri ng
recordi ngs; and 2) t oxicit y in W T channels, assesse d af t er a 24-hour drug ex posure fol low ed
(C) Tl+-measurements after 24-hour treatment and washout in HEK cells

wild-type KV11.1 = wild-type KV11.1 (Homo sapiens, UniProt Q12809)
[3] = mouse, in vivo, ip, 40 mg/kg; cited from earlier work
[4] = target: Kv11.1 missense variants, residues 536–628 (Homo sapiens, UniProt Q12809, Y475D); experiment: Multiplexed assay of variant effect (saturation mutagenesis, FACS surface trafficking); conditions: missense variant Y475D
Method: (§1) Cells were grown to 40%–60% confluence and transiently transfected first with Bxb1 integrase (pCAG–NLS–HA–Bxb1) using FuGENE 6 (Promega), followed by KCNH2 variant libraries 24 hours later. On day 6, cells were induced with 1 μg/mL doxycycline. Integrated cell lines expressed a single variant alongside mCherry, while nonintegrated cells were tagBFP-positive and mCherry-negative.
(§2) Saturation mutagenesis of Kv11.1 was performed using a modified promoterless dsRed-Express derivative plasmid. WT KCNH2 was inserted adjacent to an AttB site, and NdeI/BglII sites were created via synonymous mutations. […] These were purified, ligated, and electroporated into MegaX DH10B Electrocomp Cells.
(§3) The mutant pool was subcloned into the AttB-KCNH2-HA:IRES:mCherry plasmid, with an 18-mer poly-N barcode inserted adjacent to the AttB site. Each cloning step was validated via Sanger sequencing. To link barcodes with mutants, the library was digested, ligated, and PCR amplified. Final products were purified and sequenced on an Illumina NovaSeq. Reads were analyzed with a custom Python script to identify barcodes linked to single mutations.
(§4) HEK293T cells were cultured in αMEM (Corning) with 10% FBS and 1% GlutaMax at 37°C with 5% CO2. The KCNH2 variant library was integrated into a HEK293T “landing pad” cell line containing an AttP site between a tetracycline-inducible promoter and a blue fluorescent protein gene.
(§5) Cells were transfected using FuGENE 6, first with a plasmid expressing Bxb1 integrase (pCAG–NLS–HA–Bxb1) and then, the following day, with the KCNH2 variant library. On day 6, cells were incubated with 1 μg/mL doxycycline to induce expression from the landing pad’s promoter. Resulting stable cell lines expressed one variant and mCherry, while nonintegrated cells expressed tagBFP and were mCherry-negative.
(§6) Stable HEK293T cell lines were cultured in T75 flasks until 80%–90% confluent. […] After treatments, high-throughput quantitation was performed at the Vanderbilt University Medical Center Flow Cytometry Shared Resource Core (FCSR).
(§7) The treated HEK293T library was sorted via FACS to isolate cells with high mCherry expression and successful AttB plasmid integration. […] Sorted cells were repopulated and prepared for freezing, pelleted at 1 million cells per tube.
(§8) DNA was isolated from cell pools (100 μL QuickExtract per 1 million cells) and the barcode was PCR amplified for Illumina sequencing using Q5 polymerase (25–35 cycles). Sequencing reads were demultiplexed and analyzed using custom Python scripts (https://github.com/kroncke-lab/KCNH2_DMS) to identify barcodes.
(§9) The scores were then averaged across the 4 replicate experiments (separate transfections of the mutant library pool).

[5] = system: Kv11.1 missense variants, residues 536–628; experiment: as above
Method: as §1, §2, §3, §4, §5, §6, §7, §8, §9

[6] = target: Kv11.1 missense variants, residues 536–628 (Homo sapiens, UniProt Q12809, Y475A); experiment: as above; conditions: missense variant Y475A
Sequence of Kv11.1 missense variants, residues 536–628 (Homo sapiens, UniProt Q12809, Y475A) (Q12809 whole entry Y475A, the tested form may be a part): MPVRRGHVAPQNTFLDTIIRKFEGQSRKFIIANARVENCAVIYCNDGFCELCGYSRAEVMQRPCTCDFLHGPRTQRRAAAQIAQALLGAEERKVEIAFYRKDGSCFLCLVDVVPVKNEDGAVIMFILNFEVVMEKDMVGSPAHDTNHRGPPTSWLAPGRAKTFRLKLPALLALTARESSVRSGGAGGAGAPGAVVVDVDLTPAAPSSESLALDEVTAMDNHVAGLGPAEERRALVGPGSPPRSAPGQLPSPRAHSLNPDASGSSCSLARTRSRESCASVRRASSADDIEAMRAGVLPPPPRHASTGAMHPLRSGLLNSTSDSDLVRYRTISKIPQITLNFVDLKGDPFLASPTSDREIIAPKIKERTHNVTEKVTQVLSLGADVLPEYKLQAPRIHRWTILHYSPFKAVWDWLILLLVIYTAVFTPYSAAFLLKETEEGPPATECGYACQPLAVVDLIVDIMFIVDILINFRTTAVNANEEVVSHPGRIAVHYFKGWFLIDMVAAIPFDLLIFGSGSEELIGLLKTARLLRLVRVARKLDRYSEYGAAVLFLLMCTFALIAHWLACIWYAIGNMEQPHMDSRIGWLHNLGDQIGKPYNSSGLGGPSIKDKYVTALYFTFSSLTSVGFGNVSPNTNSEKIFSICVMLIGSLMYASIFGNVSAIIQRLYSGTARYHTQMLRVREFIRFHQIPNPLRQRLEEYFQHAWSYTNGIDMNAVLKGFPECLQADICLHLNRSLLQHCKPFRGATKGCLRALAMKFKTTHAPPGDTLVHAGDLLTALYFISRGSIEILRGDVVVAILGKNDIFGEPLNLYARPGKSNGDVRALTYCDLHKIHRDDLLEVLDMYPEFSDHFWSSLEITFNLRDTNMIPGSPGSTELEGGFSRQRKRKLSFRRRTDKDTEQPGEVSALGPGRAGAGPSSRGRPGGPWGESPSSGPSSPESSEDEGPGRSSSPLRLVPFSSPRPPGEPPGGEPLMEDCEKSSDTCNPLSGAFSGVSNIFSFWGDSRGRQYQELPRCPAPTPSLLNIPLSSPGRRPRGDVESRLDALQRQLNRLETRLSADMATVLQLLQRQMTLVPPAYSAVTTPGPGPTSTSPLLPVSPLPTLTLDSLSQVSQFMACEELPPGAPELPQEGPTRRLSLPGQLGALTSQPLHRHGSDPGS
Method: as §1, §2, §3, §4, §5, §6, §7, §8, §9

T1 sequence (Q12809 whole entry): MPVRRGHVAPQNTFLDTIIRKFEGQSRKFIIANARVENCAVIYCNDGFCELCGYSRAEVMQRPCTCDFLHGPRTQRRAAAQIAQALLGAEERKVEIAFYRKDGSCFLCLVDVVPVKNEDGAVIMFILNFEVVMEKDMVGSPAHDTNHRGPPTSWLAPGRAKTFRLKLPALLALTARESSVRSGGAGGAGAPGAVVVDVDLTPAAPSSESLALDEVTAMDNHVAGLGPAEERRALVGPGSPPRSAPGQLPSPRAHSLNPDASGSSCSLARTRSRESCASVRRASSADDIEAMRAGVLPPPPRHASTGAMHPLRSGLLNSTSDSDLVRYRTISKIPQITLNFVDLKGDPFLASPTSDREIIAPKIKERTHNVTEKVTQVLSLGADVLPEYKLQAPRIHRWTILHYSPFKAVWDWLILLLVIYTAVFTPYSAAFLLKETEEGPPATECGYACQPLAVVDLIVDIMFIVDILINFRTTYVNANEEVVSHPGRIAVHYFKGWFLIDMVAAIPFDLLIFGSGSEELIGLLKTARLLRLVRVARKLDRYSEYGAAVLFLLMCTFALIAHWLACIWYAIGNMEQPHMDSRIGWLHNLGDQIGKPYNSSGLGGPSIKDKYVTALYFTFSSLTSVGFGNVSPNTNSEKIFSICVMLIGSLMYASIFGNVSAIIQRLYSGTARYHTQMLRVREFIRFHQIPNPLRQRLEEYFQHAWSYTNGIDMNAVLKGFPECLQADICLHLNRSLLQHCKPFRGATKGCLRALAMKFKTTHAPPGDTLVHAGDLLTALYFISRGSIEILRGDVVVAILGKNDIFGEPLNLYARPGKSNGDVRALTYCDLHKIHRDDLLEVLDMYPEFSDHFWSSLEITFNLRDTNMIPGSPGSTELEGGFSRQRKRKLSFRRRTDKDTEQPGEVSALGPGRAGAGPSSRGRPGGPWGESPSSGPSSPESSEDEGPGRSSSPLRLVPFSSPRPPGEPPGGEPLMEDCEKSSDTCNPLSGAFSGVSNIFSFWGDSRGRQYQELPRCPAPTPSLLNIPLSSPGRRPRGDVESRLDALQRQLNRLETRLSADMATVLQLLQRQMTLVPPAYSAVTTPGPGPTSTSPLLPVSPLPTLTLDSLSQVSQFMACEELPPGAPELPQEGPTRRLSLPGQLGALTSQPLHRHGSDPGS
Sequence of Kv11.1 missense variants, residues 536–628 (Homo sapiens, UniProt Q12809, Y475D) (Q12809 whole entry Y475D, the tested form may be a part): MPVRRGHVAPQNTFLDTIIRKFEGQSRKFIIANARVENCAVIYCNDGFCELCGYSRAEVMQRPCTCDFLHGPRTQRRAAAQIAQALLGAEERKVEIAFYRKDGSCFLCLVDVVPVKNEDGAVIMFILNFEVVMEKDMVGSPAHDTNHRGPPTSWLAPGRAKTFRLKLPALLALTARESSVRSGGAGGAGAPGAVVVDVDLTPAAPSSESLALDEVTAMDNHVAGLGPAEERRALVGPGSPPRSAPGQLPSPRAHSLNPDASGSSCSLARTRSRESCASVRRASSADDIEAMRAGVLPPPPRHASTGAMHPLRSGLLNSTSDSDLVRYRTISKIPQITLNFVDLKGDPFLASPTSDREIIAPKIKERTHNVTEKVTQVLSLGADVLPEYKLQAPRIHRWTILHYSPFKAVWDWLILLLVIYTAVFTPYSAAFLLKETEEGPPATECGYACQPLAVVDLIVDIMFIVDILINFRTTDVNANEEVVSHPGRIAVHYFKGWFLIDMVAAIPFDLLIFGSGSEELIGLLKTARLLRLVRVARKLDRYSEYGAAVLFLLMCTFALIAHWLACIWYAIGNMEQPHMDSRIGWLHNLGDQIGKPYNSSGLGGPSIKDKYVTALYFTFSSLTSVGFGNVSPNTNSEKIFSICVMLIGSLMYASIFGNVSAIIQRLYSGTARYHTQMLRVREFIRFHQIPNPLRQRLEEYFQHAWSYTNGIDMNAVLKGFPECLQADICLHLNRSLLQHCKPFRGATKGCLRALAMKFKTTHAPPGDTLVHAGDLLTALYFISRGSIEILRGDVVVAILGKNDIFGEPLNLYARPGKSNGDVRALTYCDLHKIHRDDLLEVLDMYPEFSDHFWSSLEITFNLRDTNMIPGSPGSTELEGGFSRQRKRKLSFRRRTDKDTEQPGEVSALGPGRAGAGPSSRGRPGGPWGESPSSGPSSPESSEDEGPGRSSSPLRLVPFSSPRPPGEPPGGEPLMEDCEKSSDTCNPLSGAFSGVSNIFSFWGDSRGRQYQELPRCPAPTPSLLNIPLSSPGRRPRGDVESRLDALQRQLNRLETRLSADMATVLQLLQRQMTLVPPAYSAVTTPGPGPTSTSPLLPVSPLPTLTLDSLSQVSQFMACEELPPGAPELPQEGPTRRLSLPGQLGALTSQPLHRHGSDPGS
Sequence of wild-type KV11.1 (Q12809 whole entry): as the sequence (Q12809 whole entry) above

Cc1cc(C)c2c(c1)[C@@H](N(Cc1cc(C(F)(F)F)cc(C(F)(F)F)c1)c1nnn(C)n1)CCCN2C[C@H]1CC[C@H](C(=O)O)CC1 [Evacetrapib, evacetrapib]
Figure 5E value per cell vs Voltage (mV) (WT Kv11.1 [1]; Voltage -70 mV): 981.118 and 839.618 and 778.428
Figure 5F value per cell vs Voltage (mV) (WT Kv11.1 [1]; Voltage -70 mV): 5126.65 and 3642.53 and 2594.13
Figure 4D value per cell vs Voltage (mV) (WT Kv11.1 [1]; Voltage -90 mV): 8.355 and 8.669 and 7.114 and 6.058 and 6.564 and 7.143 and 9.871 and 9.491
Figure 5E value per cell vs Voltage (mV) (WT Kv11.1 [1]; Voltage -90 mV): 372.839 and 359.851 and 360.592 and 394.825 and 418.114 and 332.621 and 441 and 468.124
Figure 5F value per cell vs Voltage (mV) (WT Kv11.1 [1]; Voltage -90 mV): 3977.04 and 1576.1 and 1475.11 and 1269.7 and 1679.13 and 1263.86 and 1827.67 and 3682.76
Figure 4D value per cell vs Voltage (mV) (WT Kv11.1 [1]; Voltage -100 mV): 5.9805 and 6.106 and 5.3207 and 4.4265 and 4.931 and 4.972 and 6.757 and 6.876
Figure 5E value per cell vs Voltage (mV) (WT Kv11.1 [1]; Voltage -100 mV): 366.452 and 329.996 and 269.807 and 269.273 and 487.907 and 220.859 and 396.726 and 472.93
Figure 5F value per cell vs Voltage (mV) (WT Kv11.1 [1]; Voltage -100 mV): 2314.55 and 1511.55 and 907.537 and 927.568 and 1874.88 and 839.178 and 1131.37 and 2375.79
Figure 4D value per cell vs Voltage (mV) (WT Kv11.1 [1]; Voltage -110 mV): 4.757 and 4.592 and 3.934 and 3.367 and 4.027 and 3.635 and 4.594 and 4.969
Figure 5E value per cell vs Voltage (mV) (WT Kv11.1 [1]; Voltage -110 mV): 253.98 and 258.663 and 186.827 and 175.481 and 304.962 and 138.114 and 283.639 and 296.398
Figure 5F value per cell vs Voltage (mV) (WT Kv11.1 [1]; Voltage -110 mV): 1302.55 and 1153.11 and 698.663 and 755.178 and 1277.44 and 611.635 and 865.285 and 1384.34
Figure 4D value per cell vs Voltage (mV) (WT Kv11.1 [1]; Voltage -120 mV): 3.611 and 3.4981 and 2.97 and 2.532 and 3.293 and 2.583 and 3.34 and 3.894
Figure 5E value per cell vs Voltage (mV) (WT Kv11.1 [1]; Voltage -120 mV): 244.589 and 219.981 and 132.908 and 108.36 and 189.369 and 89.3521 and 190.069 and 167.699
Figure 5F value per cell vs Voltage (mV) (WT Kv11.1 [1]; Voltage -120 mV): 3324.93 and 1104 and 582.988 and 644.385 and 999.7 and 579.372 and 805.065 and 656.376
Inactivation time constant (WT Kv11.1 [1]; Voltage step 0, WT): 11.1 ± 0.6 ms
Inactivation time constant (WT Kv11.1 [1]; Voltage step 10, WT): 8.5 ± 0.3 ms
Inactivation time constant (WT Kv11.1 [1]; Voltage step 20, WT): 6.3 ± 0.2 ms
Inactivation time constant (WT Kv11.1 [1]; Voltage step 30, WT): 4.6 ± 0.2 ms
Inactivation time constant (WT Kv11.1 [1]; Voltage step 40, WT): 3.4 ± 0.2 ms
Inactivation time constant (WT Kv11.1 [1]; Voltage step 50, WT): 2.6 ± 0.2 ms
Inactivation time constant (WT Kv11.1 [1]; Voltage step 60, WT): 2.1 ± 0.1 ms
Inactivation time constant (WT Kv11.1 [1]; Voltage step 70, WT): 1.6 ± 0.1 ms
Peak tail current (WT Kv11.1 [1]; Voltage step (mV) 0, WT, mean±SD): 66.0±31.5 pA/pF
Peak tail current (WT Kv11.1 [1]; Voltage step (mV) 10, WT, mean±SD): 53.8±28.6 pA/pF
Peak tail current (WT Kv11.1 [1]; Voltage step (mV) 20, WT, mean±SD): 43.6±25.2 pA/pF
Peak tail current (WT Kv11.1 [1]; Voltage step (mV) 30, WT, mean±SD): 34.5±20.7 pA/pF
Peak tail current (WT Kv11.1 [1]; Voltage step (mV) 40, WT, mean±SD): 28.0±16.9 pA/pF
Peak tail current (WT Kv11.1 [1]; Voltage step (mV) -10, WT, mean±SD): 78.0±33.4 pA/pF
Peak tail current (WT Kv11.1 [1]; Voltage step (mV) -20, WT, mean±SD): 89.2±35.1 pA/pF
Peak tail current (WT Kv11.1 [1]; Voltage step (mV) -30, WT, mean±SD): 95.9±34.9 pA/pF
Peak tail current (WT Kv11.1 [1]; Voltage step (mV) -40, WT, mean±SD): 95.8±33.5 pA/pF
Peak tail current (WT Kv11.1 [1]; Voltage step (mV) -50, WT, mean±SD): 86.7±30.0 pA/pF
Peak tail current (WT Kv11.1 [1]; Voltage step (mV) -60, WT, mean±SD): 68.2±25.6 pA/pF
Peak tail current (WT Kv11.1 [1]; Voltage step (mV) -70, WT, mean±SD): 41.5±21.4 pA/pF
Peak tail current (WT Kv11.1 [1]; Voltage step (mV) -80, WT, mean±SD): 7.2±20.3 pA/pF
Peak tail current (WT Kv11.1 [1]; Voltage step (mV) -90, WT, mean±SD): -32.8±24.4 pA/pF
Peak tail current (WT Kv11.1 [1]; Voltage step (mV) -100, WT, mean±SD): -76.7±33.7 pA/pF
Peak tail current (WT Kv11.1 [1]; Voltage step (mV) -110, WT, mean±SD): -125.2±46.2 pA/pF
Peak tail current (WT Kv11.1 [1]; Voltage step (mV) -120, WT, mean±SD): -176.7±61.8 pA/pF
Inactivation time constant (WT Kv11.1 [1]; Voltage step -10, WT): 13.6 ± 0.7 ms
Inactivation time constant (WT Kv11.1 [1]; Voltage step -20, WT): 15.5 ± 0.9 ms
Fast deactivation time constant (WT Kv11.1 [1]; Voltage step -60, WT): 801.3 ± 344.8 ms
Slow deactivation time constant (WT Kv11.1 [1]; Voltage step -60, WT): 6986.4 ± 2967.3 ms
Fast deactivation time constant (WT Kv11.1 [1]; Voltage step -70, WT): 866.4 ± 104.0 ms
Slow deactivation time constant (WT Kv11.1 [1]; Voltage step -70, WT): 3787.8 ± 1272.5 ms
Fast deactivation time constant (WT Kv11.1 [1]; Voltage step -90, WT): 393.5 ± 46.0 ms
Slow deactivation time constant (WT Kv11.1 [1]; Voltage step -90, WT): 2093.9 ± 1091.1 ms
Fast deactivation time constant (WT Kv11.1 [1]; Voltage step -100, WT): 351.7 ± 97.5 ms
Slow deactivation time constant (WT Kv11.1 [1]; Voltage step -100, WT): 1485.3 ± 634.8 ms
Fast deactivation time constant (WT Kv11.1 [1]; Voltage step -110, WT): 237.3 ± 62.3 ms
Slow deactivation time constant (WT Kv11.1 [1]; Voltage step -110, WT): 1006.0 ± 306.8 ms
Fast deactivation time constant (WT Kv11.1 [1]; Voltage step -120, WT): 167.8 ± 54.1 ms
Slow deactivation time constant (WT Kv11.1 [1]; Voltage step -120, WT): 1087.1 ± 925.0 ms
rate of activation (WT Kv11.1 [1]; WT): decelerated the rate of activation
rate of deactivation (WT Kv11.1 [1]; WT): slowed the rate of deactivation
rate of inactivation (WT Kv11.1 [1]; WT channels): did not affect the rate of inactivation
recovery from inactivation (WT Kv11.1 [1]; WT channels): slight delay in the reopening from inactivation
Time constants of activation (τ) (WT Kv11.1 [1]; WT, evacetrapib 15 μmol/L, individual cells): 764.055 and 877.888 and 1509 and 938.338 and 764.764 and 413.052
Activation τ (WT Kv11.1 [1]; WT, evacetrapib 15 μmol/L, mean ± SD): 877 ± 360 ms
Max (voltage dependence of activation) (WT Kv11.1 [1]; WT, mean±SD, N=11): 78.2 ± 26.7 pA/pF
Slope factor (voltage dependence of activation) (WT Kv11.1 [1]; WT, mean±SD, N=11): 9.0 ± 1.6
V1/2 (voltage dependence of activation) (WT Kv11.1 [1]; WT, mean±SD, N=11): -4.0 ± 8.4 mV
WT currents (WT Kv11.1 [1]; whole-cell patch-clamp): increases WT currents
Changes in WT function (thallium flux) (WT Kv11.1 [2]): 0.1125 and 0.1113 and 0.1215
inhibition of WT channels (wild-type KV11.1): did not inhibit WT channels
peak plasma levels [3]: 35 µmol/L
score (Figure 6B) [4]: 152.736
share of the 546 variants rescued by either drug that evacetrapib improved ([5]; 10 μmol/L, 24 hours): 45%
share of known pathogenic variants in the pore region with improved trafficking ([5]; 16 out of 94): 17%
share of all trafficking-deficient variants in this channel segment with improved trafficking ([5]; 248 out of 971, 10 μmol/L, 24 hours): 25%
number of trafficking-deficient variants with improved trafficking ([5]; of 971 variants with ≥90% loss of surface expression, 10 μmol/L, 24 hours): 248
number of known pathogenic variants in the pore region with improved trafficking ([5]; out of 94, 10 μmol/L, 24 hours): 16
score (Figure 6B) [6]: 25.1035
